# How the values were obtained:
# pErk = experiment: Erk signaling (pErk, total Erk) by immunoblot in SW1573 cells; type: cell-based; conditions: SW1573, 2.5 μM
# Protocol: (§1) Signaling kinetics were monitored during a 24 hour time course in MIA PaCa2, NCI-H23, and SW1573 cells treated with 2.5 μM LC-2. Modulation of Erk signaling by both MRTX and LC-2 occurs within 6 hours in MIA PaCa-2 and NCI-H23 cells (FIGS. 10A, 10B, and 11). pErk was suppressed by both compounds at 6 and 24 hours in each cell lines. […] Total Erk was increased in LC-2 treated cells compared to DMSO at all time points indicating the initiation of a positive feedback loop upon KRAS^G12C degradation and pErk inhibition.
# (§2) NCI-H2030 (CRL-5914), MIA PaCa-2 (CRL-1420), NCI-H23 (CRL-5800), NCI-H358 (CRL-5807), and HCT-116 (CCL-247) cells were obtained from ATCC, expanded immediately, and frozen down. Vials were thawed and used within 20 passages. SW1573 cells were a gift from Arvinas and were handled in the same manner. NCI-H2030, NCI-H23, and NCI-H358 were cultured in RPMI (ATCC30-2001) supplemented with 10% FBS (Biological Industries; cat. no. S1480) and 1% Penicillin-Streptomycin (ThermoFisher; cat. no. 15140122). HCT-116 cells were maintained in high glucose DMEM (ThermoFisher; cat. no. 11965084) supplemented as above. MIA PaCa-2 cells were cultured in high glucose DMEM supplemented with 10% FBS, 2.5% horse serum (ThermoFisher; cat. no. 26050-088; lot 2109875), and 1% Penicillin-Streptomycin. SW1573 cells were maintained in DMEM/F12 Nutrient Mix with GlutaMAX supplement (ThermoFisher; cat. no. 10565018) with 10% FBS and 1% Penicillin-Streptomycin added. DPBS (ThermoFisher; cat. no. 14190250) was used to wash cells and 0.25% Trypsin-EDTA (ThermoFisher; cat. no. […]) was used to detach cells for passaging. […] The VHL ligand was generously provided by Arvinas. […]
# (§3) Cell lysates were clarified at 21000×g for 15 mins at 4° C. Protein levels were quantified using a 50:1 mixture of bicinchoninic acid solution (Millipore Sigma; cat. no. B9643) and 4% (w/v) copper(II) sulfate solution (Millipore Sigma; cat. no. C2284) incubated at 37° C. for 30 mins. Absorbance values at 560 nm were read on an EnVision 2101 Multilabel Reader (PerkinElmer). […]
# [1] = as above; type: cell-based; conditions: SW1573, 2.5 μM, all time points
# Protocol: as §1, §2, §3
compound,measurement,setting,value
"C=C(F)C(=O)N1CCN(c2nc(OC[C@@H]3CCCN3CCCOCCC(=O)N[C@H](C(=O)N3C[C@H](O)C[C@H]3C(=O)NCc3ccc(-c4scnc4C)cc3)C(C)(C)C)nc3c2CCN(c2cccc4cccc(Cl)c24)C3)C[C@@H]1CC#N [LC-2, (2S,4R)-1-((S)-2-(3-(3-((S)-2-(((7-(8-chloronaphthalen-1-yl)-4-((S)-3-(cyanomethyl)-4-(2-fluoroacryloyl)piperazin-1-yl)-5,6,7,8-tetrahydropyrido[3,4-d]pyrimidin-2-yl)oxy)methyl)pyrrolidin-1-yl)propoxy)propanamido)-3,3-dimethylbutanoyl)-4-hydroxy-N-(4-(4-methylthiazol-5-yl)benzyl)pyrrolidine-2-carboxamide]",phosphorylated Erk over time,pErk; 24 hour time course,"inhibited by 2.5 μM LC-2 between 1 and 4 hours, however pErk levels rebounded between 8 and 24 hours"
same,pErk levels versus DMSO,pErk; 24 hours,significantly lower
same,total Erk versus DMSO,[1],increased

# Reference: patent US20220370416A1, “COMPOUNDS AND METHODS FOR TARGETED DEGRADATION OF KRAS” (Arvinas Operations, Inc., priority 2020, published 2022)
